{"source": "patent US8247211B2", "about": "“Glycopeptide antibiotics” (American Cyanamid Company, priority 2001, dated 2012)", "test_in_all_cases": "In vitro antibacterial evaluation: minimum inhibitory concentration (MIC), broth dilution method", "format_in_all_cases": "cell-based", "key": {"[1]": {"system": "Streptococcus sp.", "protocol": "(§1) The minimum inhibitory concentration (MIC), the lowest concentration of the antibiotic which inhibits growth of the test organism, is determined by the broth dilution method using Muller-Hinton II […] (Baltimore Biological Laboratories) following the recommendations of the National Committee for Clinical Laboratory Standards [Methods for dilution antimicrobial susceptibility tests for bacteria that grow aerobically, approved standard M7-A2, National Committee for Clinical Laboratory Standards, Villanova, Pa].\n(§2) An inoculum level of 5×10^5 CFU/mL, and a range of antibiotic concentrations (64-0.06 μg/mL) is used. […] The test organisms include a spectrum of Gram-positive bacteria comprised of Staphylococcus sp., Streptococcus sp. and Enterococcus sp. These organisms include recent clinical isolates that are resistant to methicillin, penicillin and/or vancomycin."}, "[2]": {"system": "Enterococcus sp.", "protocol": "as §1, §2"}, "[3]": {"system": "Escherichia coli", "protocol": "as §1, §2"}, "[4]": {"system": "Staphylococcus sp.", "conditions": "broth dilution, 18 hours at 35° C.", "protocol": "as §1, §2"}}}
{"smiles": "CC(c1ccccc1)C1NC(=O)CNC(=O)C(CO)NC(=O)C(C(O)C2CNC(=N)N2C2OC(CO)C(O)C(O)C2O)NC(=O)C(C(O)C2CNC(=N)N2)NC(=O)C(Cc2ccc(OC3OC(CO)C(OC4OC5COC(c6cccc(Cl)c6)OC5C(O)C4O)C(O)C3O)cc2)NC1=O", "note": "(stereo not drawn) [Example 138, Cyclo[glycyl-β-methylphenylalanyl-O-[4-O-[4,6-O-(3-chlorobenzylidene)hexopyranosyl]-hexopyranosyl]tyrosyl-3-(2-iminoimidazolidin-4-yl)seryl-3-(3-hexopyranosyl-2-iminoimidazolidin-4-yl)serylseryl]]", "values": [{"measurement": "MIC Streptococcus pneumoniae (ATCC 6301)", "setting": "[1]; strain ATCC 6301", "value": "<0.06", "unit": "µg/mL"}, {"measurement": "MIC Streptococcus pneumoniae (GC 1894)", "setting": "[1]; strain GC 1894", "value": "<0.06", "unit": "µg/mL"}, {"measurement": "MIC Streptococcus pyogenes (GC 4563)", "setting": "[1]; strain GC 4563", "value": 0.25, "unit": "µg/mL"}, {"measurement": "MIC Streptococcus agalactiae (GC 4564)", "setting": "[1]; strain GC 4564", "value": 0.12, "unit": "µg/mL"}, {"measurement": "MIC Streptococcus pneumoniae (GC 4565)", "setting": "[1]; strain GC 4565", "value": "<0.06", "unit": "µg/mL"}, {"measurement": "MIC Enterococcus faecalis (ATCC 29212)", "setting": "[2]; strain ATCC 29212", "value": 4, "unit": "µg/mL"}, {"measurement": "MIC Enterococcus faecalis (GC 2242)", "setting": "[2]; strain GC 2242", "value": 4, "unit": "µg/mL"}, {"measurement": "MIC Enterococcus faecium (GC 2243)", "setting": "[2]; strain GC 2243", "value": 4, "unit": "µg/mL"}, {"measurement": "MIC Enterococcus faecalis (GC 2691)", "setting": "[2]; strain GC 2691", "value": 8, "unit": "µg/mL"}, {"measurement": "MIC Enterococcus faecalis (GC 3059)", "setting": "[2]; strain GC 3059", "value": 4, "unit": "µg/mL"}, {"measurement": "MIC Enterococcus faecalis (GC 4552)", "setting": "[2]; strain GC 4552", "value": 4, "unit": "µg/mL"}, {"measurement": "MIC Enterococcus faecalis (GC 4553)", "setting": "[2]; strain GC 4553", "value": 8, "unit": "µg/mL"}, {"measurement": "MIC Enterococcus faecalis (GC 4554)", "setting": "[2]; strain GC 4554", "value": 8, "unit": "µg/mL"}, {"measurement": "MIC Enterococcus faecium (GC 4556)", "setting": "[2]; strain GC 4556", "value": 8, "unit": "µg/mL"}, {"measurement": "MIC Enterococcus faecium (GC 4557)", "setting": "[2]; strain GC 4557", "value": 2, "unit": "µg/mL"}, {"measurement": "MIC Enterococcus avium (GC 4558)", "setting": "[2]; strain GC 4558", "value": 4, "unit": "µg/mL"}, {"measurement": "MIC Enterococcus faecalis (GC 6189)", "setting": "[2]; strain GC 6189", "value": 4, "unit": "µg/mL"}, {"measurement": "MIC Escherichia coli (ATCC 25922)", "setting": "[3]; strain ATCC 25922", "value": 64, "unit": "µg/mL"}, {"measurement": "MIC Escherichia coli (GC 4559)", "setting": "[3]; strain GC 4559", "value": 64, "unit": "µg/mL"}, {"measurement": "MIC Escherichi coli (GC 4560)", "setting": "[3]; strain GC 4560", "value": 0.5, "unit": "µg/mL"}, {"measurement": "MIC Coagulase Negative Staphylococcus (GC 4547)", "setting": "[4]; 5×10^5 CFU/mL", "value": 4, "unit": "µg/mL"}, {"measurement": "MIC Coagulase Negative Staphylococcus (GC 4548)", "setting": "[4]; 5×10^5 CFU/mL", "value": 1, "unit": "µg/mL"}, {"measurement": "MIC Coagulase Negative Staphylococcus (GC 4549)", "setting": "[4]; 5×10^5 CFU/mL", "value": 1, "unit": "µg/mL"}, {"measurement": "MIC Coagulase Negative Staphylococcus (GC 4551)", "setting": "[4]; 5×10^5 CFU/mL", "value": 2, "unit": "µg/mL"}, {"measurement": "MIC Coagulase Negative Staphylococcus (GC 6257)", "setting": "[4]; 5×10^5 CFU/mL", "value": 2, "unit": "µg/mL"}, {"measurement": "MIC Staphylococcus aureus (ATCC 29213)", "setting": "[4]; 5×10^5 CFU/mL", "value": 2, "unit": "µg/mL"}, {"measurement": "MIC Staphylococcus aureus (GC 1131)", "setting": "[4]; 5×10^5 CFU/mL", "value": 2, "unit": "µg/mL"}, {"measurement": "MIC Staphylococcus aureus (GC 3051)", "setting": "[4]; 5×10^5 CFU/mL", "value": 2, "unit": "µg/mL"}, {"measurement": "MIC Staphylococcus aureus (GC 3053)", "setting": "[4]; 5×10^5 CFU/mL", "value": 2, "unit": "µg/mL"}, {"measurement": "MIC Staphylococcus aureus (GC 4541)", "setting": "[4]; 5×10^5 CFU/mL", "value": 2, "unit": "µg/mL"}, {"measurement": "MIC Staphylococcus aureus (GC 4542)", "setting": "[4]; 5×10^5 CFU/mL", "value": 2, "unit": "µg/mL"}, {"measurement": "MIC Staphylococcus aureus (GC 4544)", "setting": "[4]; 5×10^5 CFU/mL", "value": 2, "unit": "µg/mL"}, {"measurement": "MIC Staphylococcus aureus (GC 4545)", "setting": "[4]; 5×10^5 CFU/mL", "value": 2, "unit": "µg/mL"}, {"measurement": "MIC Staphylococcus aureus-SMITH (GC 4543)", "setting": "[4]; 5×10^5 CFU/mL", "value": 1, "unit": "µg/mL"}, {"measurement": "MIC Staphylococcus haemolyticus (GC 4546)", "setting": "[4]; 5×10^5 CFU/mL", "value": 2, "unit": "µg/mL"}, {"measurement": "MIC Staphylococcus aureus (ATCC 29213)", "setting": "[4]; strain ATCC 29213", "value": 2, "unit": "µg/mL"}, {"measurement": "MIC Staphylococcus aureus (GC 1131)", "setting": "[4]; strain GC 1131", "value": 2, "unit": "µg/mL"}, {"measurement": "MIC Staphylococcus aureus (GC 3051)", "setting": "[4]; strain GC 3051", "value": 2, "unit": "µg/mL"}, {"measurement": "MIC Staphylococcus aureus (GC 3053)", "setting": "[4]; strain GC 3053", "value": 2, "unit": "µg/mL"}, {"measurement": "MIC Staphylococcus aureus (GC 4541)", "setting": "[4]; strain GC 4541", "value": 2, "unit": "µg/mL"}, {"measurement": "MIC Staphylococcus aureus (GC 4542)", "setting": "[4]; strain GC 4542", "value": 2, "unit": "µg/mL"}, {"measurement": "MIC Staphylococcus aureus-SMITH (GC 4543)", "setting": "[4]; strain GC 4543", "value": 1, "unit": "µg/mL"}, {"measurement": "MIC Staphylococcus aureus (GC 4544)", "setting": "[4]; strain GC 4544", "value": 2, "unit": "µg/mL"}, {"measurement": "MIC Staphylococcus aureus (GC 4545)", "setting": "[4]; strain GC 4545", "value": 2, "unit": "µg/mL"}, {"measurement": "MIC Staphylococcus haemolyticus (GC 4546)", "setting": "[4]; strain GC 4546", "value": 2, "unit": "µg/mL"}, {"measurement": "MIC Coagulase Negative Staphylococcus (GC 4547)", "setting": "[4]; strain GC 4547", "value": 4, "unit": "µg/mL"}, {"measurement": "MIC Coagulase Negative Staphylococcus (GC 4548)", "setting": "[4]; strain GC 4548", "value": 1, "unit": "µg/mL"}, {"measurement": "MIC Coagulase Negative Staphylococcus (GC 4549)", "setting": "[4]; strain GC 4549", "value": 1, "unit": "µg/mL"}, {"measurement": "MIC Coagulase Negative Staphylococcus (GC 4551)", "setting": "[4]; strain GC 4551", "value": 2, "unit": "µg/mL"}, {"measurement": "MIC Coagulase Negative Staphylococcus (GC 6257)", "setting": "[4]; strain GC 6257", "value": 2, "unit": "µg/mL"}]}
